Experimental data: the kinase profiling compilation of Christmann-Franck et al. (2016)

Columns and labels:
Test in all cases: KINOMEscan competition binding
Conditions in all cases: compound 10.0 µM
ADCK4 (human) = ADCK4 (human) (UniProt Q96D53)
FLT3 (human) = FLT3 (human) (UniProt P36888)
NEK1 (human) = NEK1 (human) (UniProt Q96PY6)
RIPK1 (human) = RIPK1 (human) (UniProt Q13546)
CAMK2G (human) = CAMK2G (human) (UniProt Q13555)
BMPR2 (human) = BMPR2 (human) (UniProt Q13873)
[1] = test system: ABL1 (human), P00519 [M351T]
DCLK3 (human) = DCLK3 (human) (UniProt Q9C098)
TEC (human) = TEC (human) (UniProt P42680)
Sequence of TEC (human) (P42680 whole entry, looked up): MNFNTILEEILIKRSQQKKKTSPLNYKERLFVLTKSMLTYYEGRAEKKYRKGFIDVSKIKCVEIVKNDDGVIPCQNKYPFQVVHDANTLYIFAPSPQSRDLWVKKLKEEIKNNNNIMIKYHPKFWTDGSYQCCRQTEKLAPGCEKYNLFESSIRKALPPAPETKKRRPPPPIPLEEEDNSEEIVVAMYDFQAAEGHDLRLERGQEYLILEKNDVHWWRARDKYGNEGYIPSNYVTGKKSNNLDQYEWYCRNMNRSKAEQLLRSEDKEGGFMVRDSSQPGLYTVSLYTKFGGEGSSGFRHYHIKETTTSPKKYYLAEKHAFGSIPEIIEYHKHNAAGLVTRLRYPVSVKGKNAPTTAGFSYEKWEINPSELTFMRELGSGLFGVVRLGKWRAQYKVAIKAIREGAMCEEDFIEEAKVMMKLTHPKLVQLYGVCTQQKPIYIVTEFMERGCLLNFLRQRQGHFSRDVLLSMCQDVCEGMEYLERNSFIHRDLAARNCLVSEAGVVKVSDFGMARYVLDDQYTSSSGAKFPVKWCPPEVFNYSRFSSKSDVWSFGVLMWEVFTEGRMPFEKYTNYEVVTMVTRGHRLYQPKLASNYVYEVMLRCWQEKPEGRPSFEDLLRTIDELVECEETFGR

AKT3 (human) = AKT3 (human) (UniProt Q9Y243)
Sequence of AKT3 (human) (Q9Y243 whole entry, looked up): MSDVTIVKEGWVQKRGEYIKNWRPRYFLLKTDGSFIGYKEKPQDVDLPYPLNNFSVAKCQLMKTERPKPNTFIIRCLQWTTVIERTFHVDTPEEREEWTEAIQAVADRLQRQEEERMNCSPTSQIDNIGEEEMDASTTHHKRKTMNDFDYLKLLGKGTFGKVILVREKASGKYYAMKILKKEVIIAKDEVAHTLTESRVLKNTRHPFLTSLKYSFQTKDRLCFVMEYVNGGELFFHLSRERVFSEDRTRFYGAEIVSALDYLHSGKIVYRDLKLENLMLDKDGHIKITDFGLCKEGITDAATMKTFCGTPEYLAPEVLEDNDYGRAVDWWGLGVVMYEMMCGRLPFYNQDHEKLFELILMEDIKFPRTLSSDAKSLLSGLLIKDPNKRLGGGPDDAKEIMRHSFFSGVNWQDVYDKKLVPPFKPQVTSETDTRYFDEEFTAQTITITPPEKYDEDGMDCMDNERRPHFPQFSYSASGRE

EPHA1 (human) = EPHA1 (human) (UniProt P21709)
ITK (human) = ITK (human) (UniProt Q08881)
STK3 (human) = STK3 (human) (UniProt Q13188)
MUSK (human) = MUSK (human) (UniProt O15146)
MAPK10 (human) = MAPK10 (human) (UniProt P53779)
AAK1 (human) = AAK1 (human) (UniProt Q2M2I8)
EIF2AK2 (human) = EIF2AK2 (human) (UniProt P19525)
Sequence of EIF2AK2 (human) (P19525 whole entry, looked up): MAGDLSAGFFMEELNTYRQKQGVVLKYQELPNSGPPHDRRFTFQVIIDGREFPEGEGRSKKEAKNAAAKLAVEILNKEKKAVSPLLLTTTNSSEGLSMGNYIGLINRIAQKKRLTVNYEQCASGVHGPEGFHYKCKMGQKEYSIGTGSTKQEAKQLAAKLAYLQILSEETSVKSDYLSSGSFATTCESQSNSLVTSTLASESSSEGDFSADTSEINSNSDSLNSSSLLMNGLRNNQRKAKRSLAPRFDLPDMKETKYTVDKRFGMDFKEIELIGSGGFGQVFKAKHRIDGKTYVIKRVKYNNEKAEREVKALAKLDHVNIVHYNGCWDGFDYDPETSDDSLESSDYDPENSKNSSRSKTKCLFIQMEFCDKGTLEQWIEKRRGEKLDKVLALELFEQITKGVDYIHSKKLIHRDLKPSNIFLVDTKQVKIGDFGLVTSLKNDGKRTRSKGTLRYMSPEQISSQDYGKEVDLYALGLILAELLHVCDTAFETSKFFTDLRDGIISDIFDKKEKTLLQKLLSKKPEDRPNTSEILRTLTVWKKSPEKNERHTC

MINK1 (human) = MINK1 (human) (UniProt Q8N4C8)
Sequence of MINK1 (human) (Q8N4C8 whole entry, looked up): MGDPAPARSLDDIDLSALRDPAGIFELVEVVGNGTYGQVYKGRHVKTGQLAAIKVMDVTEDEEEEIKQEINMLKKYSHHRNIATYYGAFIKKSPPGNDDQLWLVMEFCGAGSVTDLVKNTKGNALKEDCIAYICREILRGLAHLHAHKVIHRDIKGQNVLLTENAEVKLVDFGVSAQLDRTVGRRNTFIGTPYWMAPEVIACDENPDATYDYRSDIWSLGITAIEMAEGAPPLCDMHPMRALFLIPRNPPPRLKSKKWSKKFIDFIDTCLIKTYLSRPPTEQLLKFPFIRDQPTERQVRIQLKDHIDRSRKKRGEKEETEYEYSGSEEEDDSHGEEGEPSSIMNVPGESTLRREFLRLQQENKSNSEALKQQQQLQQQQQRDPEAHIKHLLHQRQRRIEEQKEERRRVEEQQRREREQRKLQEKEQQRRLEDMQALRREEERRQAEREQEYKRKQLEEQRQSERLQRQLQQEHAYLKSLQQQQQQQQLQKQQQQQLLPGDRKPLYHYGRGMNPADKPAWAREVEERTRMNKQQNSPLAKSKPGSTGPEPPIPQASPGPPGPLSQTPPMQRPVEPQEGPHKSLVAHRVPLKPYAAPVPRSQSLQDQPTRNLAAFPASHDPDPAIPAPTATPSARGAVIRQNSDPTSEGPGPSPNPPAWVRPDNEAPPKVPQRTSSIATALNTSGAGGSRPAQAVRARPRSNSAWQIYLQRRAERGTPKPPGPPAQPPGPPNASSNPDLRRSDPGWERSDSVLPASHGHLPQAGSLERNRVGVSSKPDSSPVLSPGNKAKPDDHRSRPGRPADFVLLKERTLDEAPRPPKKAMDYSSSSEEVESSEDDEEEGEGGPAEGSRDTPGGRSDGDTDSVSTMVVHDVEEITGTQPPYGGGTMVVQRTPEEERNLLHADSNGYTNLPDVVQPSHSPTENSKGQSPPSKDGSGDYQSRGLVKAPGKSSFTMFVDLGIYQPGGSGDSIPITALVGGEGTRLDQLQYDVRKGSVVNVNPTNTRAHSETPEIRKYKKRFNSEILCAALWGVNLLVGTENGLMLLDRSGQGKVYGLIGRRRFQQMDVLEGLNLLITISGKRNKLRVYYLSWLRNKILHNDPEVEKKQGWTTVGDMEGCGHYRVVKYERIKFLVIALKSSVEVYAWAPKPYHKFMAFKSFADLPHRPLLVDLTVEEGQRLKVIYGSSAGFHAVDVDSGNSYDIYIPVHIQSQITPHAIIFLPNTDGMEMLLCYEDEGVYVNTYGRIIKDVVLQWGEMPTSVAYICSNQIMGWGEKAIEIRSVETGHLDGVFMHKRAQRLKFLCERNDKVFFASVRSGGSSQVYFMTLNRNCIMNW

DAPK1 (human) = DAPK1 (human) (UniProt P53355)
CHEK1 (human) = CHEK1 (human) (UniProt O14757)
CSNK1D (human) = CSNK1D (human) (UniProt P48730)
Sequence of CSNK1D (human) (P48730 whole entry, looked up): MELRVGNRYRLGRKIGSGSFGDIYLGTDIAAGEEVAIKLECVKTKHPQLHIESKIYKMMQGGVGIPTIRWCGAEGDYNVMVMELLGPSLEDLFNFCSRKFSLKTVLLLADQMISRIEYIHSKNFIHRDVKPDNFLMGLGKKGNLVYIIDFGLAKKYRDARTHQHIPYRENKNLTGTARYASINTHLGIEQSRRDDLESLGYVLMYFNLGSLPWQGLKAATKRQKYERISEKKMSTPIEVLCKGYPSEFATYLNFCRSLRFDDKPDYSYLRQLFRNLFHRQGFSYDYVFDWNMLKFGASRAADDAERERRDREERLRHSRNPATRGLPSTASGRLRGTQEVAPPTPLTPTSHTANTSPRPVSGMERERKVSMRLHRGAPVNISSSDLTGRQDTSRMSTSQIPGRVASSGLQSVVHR

EPHA5 (human) = EPHA5 (human) (UniProt P54756)
MAP2K1 (human) = MAP2K1 (human) (UniProt Q02750)
Sequence of MAP2K1 (human) (Q02750 whole entry, looked up): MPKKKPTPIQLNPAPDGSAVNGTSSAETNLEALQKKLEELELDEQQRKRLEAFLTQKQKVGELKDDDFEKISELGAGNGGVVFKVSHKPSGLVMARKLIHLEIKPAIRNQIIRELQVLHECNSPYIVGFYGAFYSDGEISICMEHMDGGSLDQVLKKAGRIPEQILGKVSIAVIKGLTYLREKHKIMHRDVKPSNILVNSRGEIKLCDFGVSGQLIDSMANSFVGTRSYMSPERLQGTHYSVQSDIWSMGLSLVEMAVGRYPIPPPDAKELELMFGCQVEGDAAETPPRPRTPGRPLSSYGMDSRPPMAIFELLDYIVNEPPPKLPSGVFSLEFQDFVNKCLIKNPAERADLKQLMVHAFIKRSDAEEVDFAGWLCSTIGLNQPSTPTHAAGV

HCK (human) = HCK (human) (UniProt P08631)
ACVR1B (human) = ACVR1B (human) (UniProt P36896)
CDK19 (human) = CDK19 (human) (UniProt Q9BWU1)
STK32C (human) = STK32C (human) (UniProt Q86UX6)
PHKG2 (human) = PHKG2 (human) (UniProt P15735)
MAP2K3 (human) = MAP2K3 (human) (UniProt P46734)
BMPR1B (human) = BMPR1B (human) (UniProt O00238)
MAPK13 (human) = MAPK13 (human) (UniProt O15264)
CDK11B (human) = CDK11B (human) (UniProt P21127)
PRKD3 (human) = PRKD3 (human) (UniProt O94806)
YES1 (human) = YES1 (human) (UniProt P07947)
SIK1 (human) = SIK1 (human) (UniProt P57059)
PRKAA2 (human) = PRKAA2 (human) (UniProt P54646)
Sequence of PRKAA2 (human) (P54646 whole entry, looked up): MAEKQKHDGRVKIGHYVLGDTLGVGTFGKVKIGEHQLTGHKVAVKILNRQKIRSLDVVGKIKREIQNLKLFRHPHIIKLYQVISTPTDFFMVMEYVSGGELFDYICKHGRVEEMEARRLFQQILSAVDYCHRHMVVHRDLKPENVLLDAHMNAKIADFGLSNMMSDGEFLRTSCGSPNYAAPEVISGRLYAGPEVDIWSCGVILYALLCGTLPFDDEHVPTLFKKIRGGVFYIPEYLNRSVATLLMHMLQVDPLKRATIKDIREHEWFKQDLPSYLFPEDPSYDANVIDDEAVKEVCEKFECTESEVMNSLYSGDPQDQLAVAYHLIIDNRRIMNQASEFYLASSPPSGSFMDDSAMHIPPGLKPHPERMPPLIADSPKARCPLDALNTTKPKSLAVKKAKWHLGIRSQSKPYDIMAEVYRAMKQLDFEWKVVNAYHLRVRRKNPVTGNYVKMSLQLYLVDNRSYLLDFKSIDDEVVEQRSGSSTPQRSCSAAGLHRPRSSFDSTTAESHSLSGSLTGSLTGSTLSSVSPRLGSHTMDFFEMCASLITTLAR

EPHA2 (human) = EPHA2 (human) (UniProt P29317)
FLT4 (human) = FLT4 (human) (UniProt P35916)
SRC (human) = SRC (human) (UniProt P12931)
Sequence of SRC (human) (P12931 whole entry, looked up): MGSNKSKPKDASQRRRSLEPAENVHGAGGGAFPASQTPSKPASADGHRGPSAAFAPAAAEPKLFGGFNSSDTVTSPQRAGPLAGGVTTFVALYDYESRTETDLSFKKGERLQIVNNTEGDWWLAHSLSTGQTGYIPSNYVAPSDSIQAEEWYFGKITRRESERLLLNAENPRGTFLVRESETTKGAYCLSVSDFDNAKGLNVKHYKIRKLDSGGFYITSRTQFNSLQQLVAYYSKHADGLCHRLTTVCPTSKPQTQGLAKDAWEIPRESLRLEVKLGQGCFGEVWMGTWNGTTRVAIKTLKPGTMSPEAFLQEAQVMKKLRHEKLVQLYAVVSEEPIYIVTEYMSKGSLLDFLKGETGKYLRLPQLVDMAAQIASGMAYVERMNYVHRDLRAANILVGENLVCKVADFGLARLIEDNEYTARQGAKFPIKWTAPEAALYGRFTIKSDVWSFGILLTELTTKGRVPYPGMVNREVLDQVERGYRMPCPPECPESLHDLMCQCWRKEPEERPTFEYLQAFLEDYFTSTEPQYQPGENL

MERTK (human) = MERTK (human) (UniProt Q12866)

With `Cc1ccc(NC(=O)c2cccc(C(C)(C)C#N)c2)cc1Nc1ccc2ncn(C)c(=O)c2c1` the kinase still bound, per cent of control (ADCK4 (human)) was 100%, the kinase still bound, per cent of control (FLT3 (human)) was 61% and the kinase still bound, per cent of control (NEK1 (human)) was 100%. For the same molecule, the kinase still bound, per cent of control (RIPK1 (human)) was 83%, the kinase still bound, per cent of control (CAMK2G (human)) was 100% and the kinase still bound, per cent of control (BMPR2 (human)) was 58%. It also gave a kinase still bound, per cent of control [1] of 3.3%, a kinase still bound, per cent of control (DCLK3 (human)) of 100% and a kinase still bound, per cent of control (TEC (human)) of 100%. For the same molecule, the kinase still bound, per cent of control (AKT3 (human)) was 100%, the kinase still bound, per cent of control (EPHA1 (human)) was 10% and the kinase still bound, per cent of control (ITK (human)) was 100%. For the same molecule, the kinase still bound, per cent of control (STK3 (human)) was 100%, the kinase still bound, per cent of control (MUSK (human)) was 92% and the kinase still bound, per cent of control (MAPK10 (human)) was 73%. The kinase still bound, per cent of control (AAK1 (human)) was 100%, the kinase still bound, per cent of control (EIF2AK2 (human)) was 75% and the kinase still bound, per cent of control (MINK1 (human)) was 7.2%. For the same molecule, the kinase still bound, per cent of control (DAPK1 (human)) was 100%, the kinase still bound, per cent of control (CHEK1 (human)) was 84% and the kinase still bound, per cent of control (CSNK1D (human)) was 100%. It also gave a kinase still bound, per cent of control (EPHA5 (human)) of 1%, a kinase still bound, per cent of control (MAP2K1 (human)) of 100% and a kinase still bound, per cent of control (HCK (human)) of 3.1%. The kinase still bound, per cent of control (ACVR1B (human)) was 97%, the kinase still bound, per cent of control (CDK19 (human)) was 35% and the kinase still bound, per cent of control (STK32C (human)) was 100%. The kinase still bound, per cent of control (PHKG2 (human)) was 100%, the kinase still bound, per cent of control (MAP2K3 (human)) was 80% and the kinase still bound, per cent of control (BMPR1B (human)) was 82%. It also gave a kinase still bound, per cent of control (MAPK13 (human)) of 9.6%, a kinase still bound, per cent of control (CDK11B (human)) of 11% and a kinase still bound, per cent of control (PRKD3 (human)) of 88%. For the same molecule, the kinase still bound, per cent of control (YES1 (human)) was 4.6%, the kinase still bound, per cent of control (SIK1 (human)) was 30% and the kinase still bound, per cent of control (PRKAA2 (human)) was 100%. For the same molecule, the kinase still bound, per cent of control (EPHA2 (human)) was 3.2%, the kinase still bound, per cent of control (FLT4 (human)) was 0.15% and the kinase still bound, per cent of control (SRC (human)) was 0.55%. The kinase still bound, per cent of control (MERTK (human)) was 100%.

`COc1cc(C(=O)NC2CCN(C)CC2)ccc1Nc1ncc2c(n1)N(C1CCCC1)CCC(=O)N2C(C)C` gave a kinase still bound, per cent of control (ADCK4 (human)) of 100%, a kinase still bound, per cent of control (FLT3 (human)) of 100% and a kinase still bound, per cent of control (NEK1 (human)) of 100%. It also gave a kinase still bound, per cent of control (RIPK1 (human)) of 100%, a kinase still bound, per cent of control (CAMK2G (human)) of 100% and a kinase still bound, per cent of control (BMPR2 (human)) of 100%. It also gave a kinase still bound, per cent of control [1] of 100%, a kinase still bound, per cent of control (DCLK3 (human)) of 100% and a kinase still bound, per cent of control (TEC (human)) of 100%. The kinase still bound, per cent of control (AKT3 (human)) was 100%, the kinase still bound, per cent of control (EPHA1 (human)) was 100% and the kinase still bound, per cent of control (ITK (human)) was 100%. It also gave a kinase still bound, per cent of control (STK3 (human)) of 100%, a kinase still bound, per cent of control (MUSK (human)) of 100% and a kinase still bound, per cent of control (MAPK10 (human)) of 100%. The kinase still bound, per cent of control (AAK1 (human)) was 100%, the kinase still bound, per cent of control (EIF2AK2 (human)) was 100% and the kinase still bound, per cent of control (MINK1 (human)) was 100%. It also gave a kinase still bound, per cent of control (DAPK1 (human)) of 100%, a kinase still bound, per cent of control (CHEK1 (human)) of 100% and a kinase still bound, per cent of control (CSNK1D (human)) of 100%. For the same molecule, the kinase still bound, per cent of control (EPHA5 (human)) was 100%, the kinase still bound, per cent of control (MAP2K1 (human)) was 100% and the kinase still bound, per cent of control (HCK (human)) was 100%. For the same molecule, the kinase still bound, per cent of control (ACVR1B (human)) was 100%, the kinase still bound, per cent of control (CDK19 (human)) was 100% and the kinase still bound, per cent of control (STK32C (human)) was 100%. For the same molecule, the kinase still bound, per cent of control (PHKG2 (human)) was 100%, the kinase still bound, per cent of control (MAP2K3 (human)) was 100% and the kinase still bound, per cent of control (BMPR1B (human)) was 100%. It also gave a kinase still bound, per cent of control (MAPK13 (human)) of 100%, a kinase still bound, per cent of control (CDK11B (human)) of 100% and a kinase still bound, per cent of control (PRKD3 (human)) of 100%. The kinase still bound, per cent of control (YES1 (human)) was 100%, the kinase still bound, per cent of control (SIK1 (human)) was 100% and the kinase still bound, per cent of control (PRKAA2 (human)) was 100%. It also gave a kinase still bound, per cent of control (EPHA2 (human)) of 100%, a kinase still bound, per cent of control (FLT4 (human)) of 0% and a kinase still bound, per cent of control (SRC (human)) of 100%. For the same molecule, the kinase still bound, per cent of control (MERTK (human)) was 34%.
